Key:
[1] = tested on: HL-60 promyelocytic leukemia cell line; assay: HL-60 differentiation (NBT reduction); assay type: cell-based; details: 72 h culture, NBT reduction at 540 nm
Method: Progression of promyelocytic leukemia can be abrogated by their differentiation. […] In order to estimate the differentiating ability of compound-40, HL-60 promyelocytic leukemia cell line was used as an in vitro model of the disease. HL-60 cells were cultured for 72 h as either control or under treatment as mentioned. After 72 h of culture, cells were exposed to nitro blue tetrazolium (NBT) solution containing phorbol myristate acetate (PMA) for 1 h at 37° C. Differentiated cells have increased oxidative burst potential which reduces NBT. Levels of reduced NBT were measured at 540 nm absorption.

[2] = tested on: hRXR α, β, or γ; assay: Transactivation assay (RARE-Luc dual luciferase reporter in HEK-293 cells), activity relative to LG268; assay type: cell-based, human; details: compound at 300 nM, 24 h; luciferase activity expressed relative to LG268
Procedure, shortened: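 HEK-293 cells co-transfected with hRXR α, β or γ expression vector, RARE-firefly luciferase and renilla luciferase; 24 h later treated with agonist (100 nM, 300 nM, 1 uM) for 24 h. Firefly signal normalized to renilla; activity expressed relative to the RXR agonist LG268.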

SMILES | HL-60 cells differentiation [1] | Activity at 300 nM [2]
CC1=C(/C=C/C(C)=C/C=C/C(C)=C/C(=O)O)C(C)(C)CCC1 [ATRA, all transretinoic acid, reference compound] | induced differentiation | –
CC1(C)CCC(C)(C)c2sc(N(CC3CC3)c3ccc(CCC(=O)O)cc3)nc21 [Compound 106, 3-{4-[(cyclopropylmethyl) (4,4,7,7-tetramethyl-4,5,6,7-tetrahydro-1,3-benzothiazol-2-yl)amino]phenyl}propanoic acid] | – | ***** (>0.6)
CC1(C)CCC(C)(C)c2sc(N(CC3CC3)c3ccc(/C=C/C(=O)O)cc3)nc21 [Compound 107] | – | ***** (>0.6)
CC1(C)CCC(C)(C)c2sc(N(CC3CC3)c3ccc(C4CC4C(=O)O)cc3)nc21 (stereo not shown) [Compound 108, 2-{4-[(cyclopropylmethyl) (4,4,7,7-tetramethyl-4,5,6,7-tetrahydro-1,3-benzothiazol-2-yl)amino]phenyl}cyclopropanecarboxylic acid] | – | ***** (>0.6)

Source: patent US9862713B2, “Substituted bicyclic heteroaryl compounds as RXR agonists” (CONNEXIOS LIFE SCIENCES PVT. LTD., priority 2014, dated 2018)
